In ChEMBL document CHEMBL1201862, “PubChem BioAssay data set” (2004):
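These data come from cells grown in 96-well plates and exposed to compound for 48 hours at five concentrations. At the GI50, growth is halved.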 Activity calls are given as the source filed them. No stated cut-off is given here; in the data, active = GI50 up to about 1.1 µM and inactive = higher.

Tests used:
Assay in all cases: DTP human tumour cell line panel, 48 h
COLO 205 = tested on: COLO 205
HCC 2998 = tested on: HCC 2998
HCT-116 = tested on: HCT-116
HCT-15 = tested on: HCT-15
HL-60 = tested on: HL-60
HOP-62 = tested on: HOP-62
K562 = tested on: K562
MOLT-4 = tested on: MOLT-4
NCI-H522 = tested on: NCI-H522
OVCAR-3 = tested on: OVCAR-3
OVCAR-4 = tested on: OVCAR-4
OVCAR-5 = tested on: OVCAR-5
RPMI-8226 = tested on: RPMI-8226
SF-268 = tested on: SF-268
SK-MEL-28 = tested on: SK-MEL-28
SNB-19 = tested on: SNB-19
UACC-257 = tested on: UACC-257
UO-31 = tested on: UO-31
ACHN = tested on: ACHN
M14 = tested on: M14

Structure (SMILES) | GI50 (COLO 205) | GI50 (HCC 2998) | GI50 (HCT-116) | GI50 (HCT-15) [µM] | GI50 (HL-60) | GI50 (HOP-62) | GI50 (K562) | GI50 (MOLT-4) | GI50 (NCI-H522) | GI50 (OVCAR-3) | GI50 (OVCAR-4) | GI50 (OVCAR-5) | GI50 (RPMI-8226) | GI50 (SF-268) | GI50 (SK-MEL-28) | GI50 (SNB-19) | GI50 (UACC-257) | GI50 (UO-31) | GI50 (ACHN) | GI50 (M14)
CC(=O)OC1C=C(C=O)C(O)(C=O)C2(C)CCCC(C)(C)C12 (centres undefined) | 0.859 µM (active) | 2.61 µM (inactive) | 0.989 µM (active) | 0.6 | 0.249 µM (active) | 6.38 µM (inactive) | 0.809 µM (active) | 0.37 µM (active) | 0.456 µM (active) | 0.693 µM (active) | 1.33 µM (inactive) | 4.55 µM (inactive) | 0.519 µM (active) | 2.42 µM (inactive) | 1.05 µM (active) | 5.6 µM (inactive) | 2 µM (inactive) | 2.32 µM (inactive) | – | –
COC(=O)[C@@H](O)[C@](O)(CCC(C)C)C(=O)O[C@@H]1C(OC)=C[C@]23CCCN2CCc2cc4c(cc2[C@H]13)OCO4 | 1.29 µM (inactive) | 0.233 µM (active) | 0.407 µM (active) | 1.68 | 0.349 µM (active) | 0.575 µM (active) | 0.659 µM (active) | 0.32 µM (active) | 0.598 µM (active) | 1.24 µM (inactive) | 1.06 µM (active) | 3.24 µM (inactive) | 1.34 µM (inactive) | 0.984 µM (active) | 0.518 µM (active) | 0.373 µM (active) | 1.82 µM (inactive) | 1.5 µM (inactive) | – | –
CCCCCCCCC1=CCC(CN(C)C)C1=O (centres undefined) | 18.8 µM (inactive) | 14 µM (inactive) | 19.4 µM (inactive) | 17.8 | 12 µM (inactive) | > 31.6 µM (inactive) | 9.82 µM (inactive) | 19 µM (inactive) | 16.7 µM (inactive) | 18.3 µM (inactive) | 23.6 µM (inactive) | 33.3 µM (inactive) | 1.34 µM (inactive) | 18.3 µM (inactive) | 20.1 µM (inactive) | > 55.2 µM (inactive) | 20.9 µM (inactive) | 17 µM (inactive) | – | –
NC1CC(=O)c2sc(I)cc21 (centres undefined) | > 100 µM (inactive) | > 100 µM (inactive) | 78.9 µM (inactive) | 35.8 | 18.7 µM (inactive) | > 100 µM (inactive) | 74 µM (inactive) | 71.9 µM (inactive) | – | > 100 µM (inactive) | – | > 100 µM (inactive) | 92.5 µM (inactive) | > 100 µM (inactive) | > 100 µM (inactive) | > 100 µM (inactive) | > 100 µM (inactive) | > 100 µM (inactive) | > 100 µM (inactive) | > 100 µM (inactive)
N/C(=N\O)N/N=C\c1ccccc1O | 5.81 µM (inactive) | 3.24 µM (inactive) | 4.85 µM (inactive) | 3.48 | 0.977 µM (active) | 11.2 µM (inactive) | 3.99 µM (inactive) | 7.13 µM (inactive) | 11.8 µM (inactive) | 10.4 µM (inactive) | 4.06 µM (inactive) | 37.5 µM (inactive) | 1.48 µM (inactive) | 12.4 µM (inactive) | 19.3 µM (inactive) | 18.9 µM (inactive) | 16.2 µM (inactive) | 7.98 µM (inactive) | – | –
CC(=N/NC(=S)N1CCCCCC1)/C(C)=N\NC(=S)N1CCCCCC1 | 5.43 µM (inactive) | 3.12 µM (inactive) | 5.08 µM (inactive) | 4.34 | – | 4.98 µM (inactive) | 13.2 µM (inactive) | > 100 µM (inactive) | 4.14 µM (inactive) | 5.6 µM (inactive) | 1.79 µM (inactive) | 7.89 µM (inactive) | 5.66 µM (inactive) | 3.45 µM (inactive) | 1.88 µM (inactive) | 6.18 µM (inactive) | 5.2 µM (inactive) | 3.75 µM (inactive) | 3.38 µM (inactive) | 5.25 µM (inactive)
CCOC(=O)C1C(c2cc(OC)c(O)c(OC)c2)c2cc3c(cc2OC1(C)O)OCO3 (centres undefined) | > 100 µM (inactive) | – | 47.3 µM (inactive) | 46.6 | > 100 µM (inactive) | 14.3 µM (inactive) | > 100 µM (inactive) | 35 µM (inactive) | – | 65.3 µM (inactive) | 57.8 µM (inactive) | – | 71.1 µM (inactive) | – | 60.7 µM (inactive) | > 100 µM (inactive) | 61.9 µM (inactive) | 41.8 µM (inactive) | 55.2 µM (inactive) | 74.3 µM (inactive)
CN1CCc2c1nc(-c1ccc([N+](=O)[O-])cc1)c1c2N(C)CC1 | 54.6 µM (inactive) | > 100 µM (inactive) | 15.9 µM (inactive) | 99.5 | 60.1 µM (inactive) | 86.7 µM (inactive) | 46 µM (inactive) | 91.2 µM (inactive) | – | 8.15 µM (inactive) | > 100 µM (inactive) | > 100 µM (inactive) | 48 µM (inactive) | > 100 µM (inactive) | – | > 100 µM (inactive) | > 100 µM (inactive) | 33.1 µM (inactive) | > 100 µM (inactive) | 77.6 µM (inactive)
CCOC(=O)c1c(NC(=S)NCc2ccccc2)sc2c1CCN(C)C2 | 46.1 µM (inactive) | – | 67.3 µM (inactive) | 68.1 | 17.4 µM (inactive) | > 100 µM (inactive) | 21.7 µM (inactive) | 20.4 µM (inactive) | – | 36.5 µM (inactive) | – | > 100 µM (inactive) | 28.5 µM (inactive) | 64 µM (inactive) | – | > 100 µM (inactive) | > 100 µM (inactive) | 64.4 µM (inactive) | 89.5 µM (inactive) | > 100 µM (inactive)
Cc1cc2cccc(Cl)c2nc1C(=O)c1ccccc1 | > 100 µM (inactive) | > 100 µM (inactive) | > 100 µM (inactive) | > 100 | – | 44.1 µM (inactive) | > 100 µM (inactive) | – | 41.2 µM (inactive) | > 100 µM (inactive) | 86.3 µM (inactive) | > 100 µM (inactive) | > 100 µM (inactive) | > 100 µM (inactive) | > 100 µM (inactive) | 70.3 µM (inactive) | 18.2 µM (inactive) | > 100 µM (inactive) | > 100 µM (inactive) | 76.2 µM (inactive)
CSCSCC(CO)NC(=O)/C=C\c1c(C)[nH]c(=O)[nH]c1=O (centres undefined) | 8.79 µM (inactive) | 5.57 µM (inactive) | 11.4 µM (inactive) | 17.9 | 9.51 µM (inactive) | 38.8 µM (inactive) | 5.2 µM (inactive) | 7.74 µM (inactive) | 0.959 µM (active) | 1.79 µM (inactive) | 1.23 µM (inactive) | 57.3 µM (inactive) | 51.5 µM (inactive) | 7.64 µM (inactive) | 28.6 µM (inactive) | 14.7 µM (inactive) | 48.6 µM (inactive) | 14.9 µM (inactive) | – | –
Oc1ccc(Cl)cc1C1=Nn2c(COc3ccc4c(c3)CCCC4)nnc2SC1 | 16 µM (inactive) | – | 6.56 µM (inactive) | 17.9 | 15 µM (inactive) | 13.2 µM (inactive) | 10.5 µM (inactive) | 11 µM (inactive) | 6.84 µM (inactive) | 12.6 µM (inactive) | 1.44 µM (inactive) | 17.2 µM (inactive) | 4.99 µM (inactive) | 16.4 µM (inactive) | 0.129 µM (active) | 20.7 µM (inactive) | 16.3 µM (inactive) | 10.5 µM (inactive) | 15.4 µM (inactive) | 14.2 µM (inactive)
